Where two headings read alike, the source gives them in different places.
Legend:
[1] = system: guinea pig's isolated; reserpine pretreated tracheal; experiment: Direct effect (tracheal relaxation, intrinsic sympathomimetic activity) on reserpine-pretreated isolated trachea, with and without ICI 118,551; conditions: cumulative administration 10^-10∼3x10^-6 M, reserpine pretreated
Protocol: Pharmacol 311, pp. 205-218 and pp.237-248 (1980). guinea pigs of weight between 350 ∼ 500 gm were used. 18 ∼ 24 hours before the experiment, 5mg/kg of reserpine was injected via abdominal cavity to remove all endogenous catecholamines. Prior experiment, guinea pigs were sacrificed, the tracheal was immediately removed and placed in Kreb's solution aerated with air mixture and maintained at room temperature of 22 ∼ 25°C. […] […] Then the tissue was repeatedly washed with Kreb's solution. After the tissue had been re-equilibrated for 60 minutes, ICI 118, 551 were administed. After treatment for 30 minutes, compound 1 of similar concentration was administered, and the intrinsic sympathomimetic activity of tracheal was observed.

[2] = system: Wistar rat's isolated; reserpine pretreated right atrium beating rate and left atrium isometric contractions; experiment: Direct effect (intrinsic sympathomimetic activity) on reserpine-pretreated isolated atria
Protocol: Pharmacol 311, pp. 205-218 and pp 237-248 (1980). Wistar rats of weight between 200 ∼ 300 gm were used. 18 ∼ 24 hours before the experiment, 5mg/kg of reserpine was injected via abdominal cavity to remove all endogenous catecholamines. Prior experiment, Wistar rats were sacrificed, the heart was immediately removed and placed in Kreb's solution aerated with air mixture and maintained at room temperature. The right and left atria were carefully separated.

β-adrenoreceptor (β1) = target: T1, β-adrenoreceptor (β1) (Rattus norvegicus, UniProt P18090); experiment: β-adrenoceptor blocking action on isolated spontaneously beating right atrium (L-isoproterenol-induced heart rate increase, Schild plot); parameters: species or system Wistar rat; conditions: from the average pA2 difference between right atrium and tracheal
T1 construct: The right and left atria were then separated; from tissue; host or cells: isolated rat right and left atria
T1 sequence (P18090 whole entry): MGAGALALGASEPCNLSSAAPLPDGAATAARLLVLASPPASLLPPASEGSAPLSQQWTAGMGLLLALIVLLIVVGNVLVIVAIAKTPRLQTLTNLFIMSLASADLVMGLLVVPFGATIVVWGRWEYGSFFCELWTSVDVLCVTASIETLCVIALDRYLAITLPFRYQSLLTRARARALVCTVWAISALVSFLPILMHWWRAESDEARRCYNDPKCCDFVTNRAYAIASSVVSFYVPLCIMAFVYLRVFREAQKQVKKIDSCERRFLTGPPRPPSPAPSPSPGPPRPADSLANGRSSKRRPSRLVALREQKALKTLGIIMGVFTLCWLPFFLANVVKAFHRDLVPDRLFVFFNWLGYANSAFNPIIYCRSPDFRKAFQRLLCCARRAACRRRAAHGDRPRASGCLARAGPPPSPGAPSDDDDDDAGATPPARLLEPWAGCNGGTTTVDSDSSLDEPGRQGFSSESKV
Protocol: The right and left atria were then separated. The spontaneously-beating right atria was clipped on both end by heart shaped clips, where one end was fixed at the bottom of 10ml of tissue bath made of physiological saline solution, and temperature maintained at 37°C. The other end of the atria was connected to a force transducer, and isometric contractions and beating rate of the right atria were recorded by COULBOURN AT-High-Speed VideoFigure. […] Cumulative administration interval was when the previous concentration reached its greatest effect, the next concentration would be immediately given.

[3] = system: Wistar rat's isolated thoracic aorta; experiment: Isolated thoracic aorta contraction caused by 75mM KCl
Protocol: After sacrificing Wistar rat of weight between 300 - 500 gm, the thoracic aorta was immediately removed and placed in cold Kreb's solution. The fatty connecting tissue surrounding the vessel wall was removed and the thoracic aorta was cut into rings of length 5 mm. The two ends of each ring was pieced and fixed with "Z" shaped platinum wires. […] When the results had been recorded for at least 35 minutes, the aorta was repeatedly rinsed with normal Kreb's solution. […] 30 minutes later, 75mM KCl was added again to induce vasoconstriction.

normotensive rats = experiment: Heart rate and blood pressure in living (anaesthetized) rat, intravenous injection; format: in vivo, Wistar rats; conditions: lmg/kg; via femoral vein, rats
Excerpt: Male Wistar rats, weighing 200 ∼ 300g were abdominal anaesthetized with pentobarbital sodium. Tracheal was cannulated to maintain normal respiration. Polyethylene tube was inserted into the left femoral vein to facilitate drug administration. A 3-way stopcock was used, with one end connected to a syringe for drug injection, while the other end was connected to the syringe filled with physiological saline. The latter was used to prevent residual drugs in the polyethylene tube after injection, which would affect experimental accuracy.
The right femoral artery was also inserted with polyethylene, and a 3-way stopcock was used tool, where one end was connected to heparin solution to prevent embolism. The other end was connected to a Disposable Diaphragm Dome, TA1019, and linked to a transducer. Through an amplifier, a recorder recorded the overall and average arterial pressure; heart rate to evaluate the effect of drug on blood pressure and heart rate.

[4] = 10^-8M, thoracic aorta contraction caused by 75mM KCl

Row | Structure (SMILES) | Aorta Relaxation [3, 4] | Lowering of Blood Pressure (normotensive rats) | Reduction of Heart Rate (normotensive rats) | also measured
1 | CC(C)NCC(O)COc1cccc2ccccc12 (stereo not shown) [PROPRANOLOL] | – | – | – | tracheal relaxation effect [1]: did not produce any relaxation effect; direct effect on atrial tissue ([2]; 10^-4∼10^-3 M): could inactivate or unexcited the tissue; direct effect on right atrium beating rate and left atrium isometric contractions ([2]; cumulative administration, reserpine pretreated): could retard the beating rate and isometric contractions
2 | COc1cc(C=O)ccc1OCC(O)CNC(C)(C)C (stereo not shown) [VANIDILOL, reference compound] | – | – | – | tracheal relaxation effect [1]: dose-dependant tracheal relaxation effect; selectivity ratio of β1 type adrenoceptor (effect on right atrium relative to tracheal) (β-adrenoreceptor (β1)): 0.98 X
3 | CCOC(=O)C1=C(C)NC(C)=C(C(=O)OCC)C1c1ccc(OCC(O)CNCCOc2ccccc2OC)c(OC)c1 (stereo not shown) [compound 3, 4-{{N-{4-[2-hydroxy-3-(2-methoxy-1-oxyethyl-aminobenzene)propoxy]-3-methoxy}phenyl}}-2,6-dimethyl-3,5-dicarboethoxy-1,4-dihydropyridine] | 41± 2% | 78± 5 mm Hg | 37± 5 beats/min | –
4 | CCOC(=O)C1=C(C)NC(C)=C(C(=O)OCC)C1c1cc(Cl)ccc1OCC(O)CNC(C)(C)C (stereo not shown) [compound 4] | 35± 5% | 76± 6 mm Hg | 33± 3 beats/min | –
5 | CCOC(=O)C1=C(C)NC(C)=C(C(=O)OCC)C1c1ccc(OCC(O)CNCCOc2ccccc2OC)c(Cl)c1 (stereo not shown) [compound 7, 4-{{N-{4-[2-hydroxy-3-(2-methoxy-1-oxyethylaminobenzene)propoxy]-3-choloro}phenyl}}-2,6-dimethyl-3,5-dicarbo-ethoxy-1,4-dihydropyridine] | 45± 5% | 82± 6 mm Hg | 40± 2 beats/min | –
6 | CCOC(=O)C1=C(C)NC(C)=C(C(=O)OCC)C1c1cc([N+](=O)[O-])ccc1OCC(O)CNCCOc1ccccc1OC (stereo not shown) [compound 9] | 47± 2% | 85± 6 mm Hg | 40± 5 beats/min | –
7 | CC(C)NC[C@H](O)c1ccc(O)c(O)c1 [L-isoproterenol] | – | – | – | tracheal relaxation effect [1]: dose-dependant tracheal relaxation effect
8 | CCCCNCC(O)COc1ccc(Cl)cc1C1C(C(=O)OCC)=C(C)NC(C)=C1C(=O)OCC (stereo not shown) [compound 5] | 33± 2% | 74± 4 mm Hg | 32± 4 beats/min | –
9 | COC(=O)C1=C(C)NC(C)=C(C(=O)OC)C1c1ccc(OCC(O)CNCCOc2ccccc2OC)c(OC)c1 (stereo not shown) [compound 2, 4-{{N-{4-[2-hydroxy-3-(2-methoxy-1-oxyethyl-aminobenzene)propoxy]-3-methoxy}phenyl}}-2,6-dimethyl-3,5-dicarbo-methoxy-1,4-dihydropyridine] | 40± 4% | 75± 2 mm Hg | 35± 4 beats/min | –
10 | CCOC(=O)C1=C(C)NC(C)=C(C(=O)OCC)C1c1cc([N+](=O)[O-])ccc1OCC(O)CNC(C)(C)C (stereo not shown) [compound 8] | 43± 3% | 80± 3 mm Hg | 40± 4 beats/min | –
11 | CC(C)NCC(O)COc1ccc(CC(N)=O)cc1 (stereo not shown) [ATENOLOL] | – | – | – | atrial blocking effect ([2]; 3x10-4M): almost does not have atrial blocking effect
12 | CCOC(=O)C1=C(C)NC(C)=C(C(=O)OCC)C1c1cc(Cl)ccc1OCC(O)CNCCOc1ccccc1OC (stereo not shown) [compound 6] | – | 80± 3 mm Hg | 35± 5 beats/min | Aorta Relaxation [3]: 45± 4%

Reference: patent EP1108710A1, “GUAIACOXYPROPANOLAMINES WITH ALPHA/BETA-ADRENERGIC BLOCKING ACTIVITY” (Cheng, Ing-Jun, priority 1998, dated 2000)
